Measured values: paper PMC4788259 (PLoS Neglected Tropical Diseases, 2016)

Test system: E. multilocularis metacestodes
Experiment: PGI assay: phosphoglucose isomerase release from damaged metacestodes
Assay type: cell-based, Echinococcus multilocularis
Settings: 10 μM, 5 days, single wells, relative to DB1127 (10 μM)
In short: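 Damage readout: PGI enzyme release after 5-day in vitro culture of 2–4 mm metacestode vesicles (H95 strain, from i.p.-infected BALB/c mice) with compound. Primary screen: 10 μM per single well, 0.1% DMSO negative control. EC50 calculated from PGI release data.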

Row | Compound | PGI (% of DB1127 at 10 uM) [%]
1 | Nc1nc(Nc2cccc(F)c2)nc2ccccc12 [MMV080034] | -19.84
2 | COc1ccc(C=C2SC(Nc3ccc(F)cc3)=NC2=O)c(OC)c1 [MMV084434] | 7.76
3 | COc1cc2c(cc1OC)C1=NNC(=O)C1=NC(C)(C)C2 [MMV084940] | -19.88
4 | COc1ccccc1NC1=C(N2CCCCC2)C(=O)c2ccccc2C1=O [MMV085203] | 31.65
5 | CCOc1ccc(-n2cc(-c3ccccc3)c3c(SCc4cc(C)ccc4C)ncnc32)cc1 [MMV085471] | -19.26
6 | Cc1ccc(C(=O)c2oc3ccc4c(C)cc(=O)oc4c3c2C)cc1 [MMV086103] | -6.30
7 | COc1cc(CNCCc2ccc(Cl)cc2)cc(OC)c1O [MMV128432] | -10.12
8 | CC(C)(C)c1ccc(C(=O)Nc2nc3ccccc3s2)cc1 [MMV142383] | -17.15
9 | COc1ccc2nc(C)cc(Nc3ccccc3O)c2c1 [MMV274073] | -1.78
10 | CCn1nc(-c2ccc(C(=O)OC)cc2)nc2c(=O)n(C)c(=O)nc1-2 [MMV306025] | -10.99
11 | COc1ccc(-c2nc(N3CCN(C(=O)C4CCCCC4)CC3)c3c4c(sc3n2)CCCC4)cc1 [MMV396594] | -22.30
12 | CCOc1c(Cl)cc(CNCC(O)c2ccccc2)cc1OC (stereo not shown) [MMV396632] | 5.30
13 | CCOc1cc(CNC(C)C(O)c2ccccc2)cc(Cl)c1OCC (stereo not shown) [MMV396633] | 30.39
14 | O=C(NC1CCN(Cc2ccccc2)CC1)c1cc2nc(-c3ccc(Cl)s3)cc(C(F)(F)F)n2n1 [MMV396635] | -11.44
15 | Cc1sc(NC(=O)c2ccccc2)c(C(c2cccs2)N2CCN(c3ccccc3)CC2)c1C (stereo not shown) [MMV396652] | -26.88
16 | Cc1sc(NC(=O)c2ccco2)c(C(c2cccnc2)N2CCC(Cc3ccccc3)CC2)c1C (stereo not shown) [MMV396663] | -1.97
17 | CCOC(=O)c1c(C)n(-c2ccccc2)c2ccc(OC(=O)c3cc(OC)c(OC)c(OC)c3)cc12 [MMV396664] | -2.70
18 | COc1cc(C(=O)Nc2nc3c(cc4c5c(cccc53)CC4)s2)cc(OC)c1OC [MMV396665] | -11.85
19 | Cc1cc(N2CCCC2)nc(Nc2ccc(NC(=O)CCc3ccccc3)cc2)n1 [MMV396669] | -21.92
20 | O=C(NCC(c1ccsc1)N1CCCCCC1)c1ccc(C(F)(F)F)cc1 (stereo not shown) [MMV396672] | -34.18
21 | COc1ccc(-c2cc3c(SCC(=O)Nc4cc(C(F)(F)F)ccc4Cl)nccn3n2)cc1 [MMV396679] | -59.06

Row | Compound | PGI (% of DB1127 at 10 uM) [%]
22 | Cc1ccc(-c2cc3c(SCC(=O)Nc4cc(C(F)(F)F)ccc4Cl)nccn3n2)cc1 [MMV396680] | -41.44
23 | Cc1cc(NC(=O)c2cccc(C(F)(F)F)c2)n(-c2nc(-c3ccc4c(c3)OCO4)cs2)n1 [MMV396681] | -33.55
24 | C[n+]1c2ccccc2nc2ccc(NCCO)cc21 [MMV396693] | -18.69
25 | CCN(CC)CCNc1ncnc2c1[nH]c1ccc(Cl)cc12 [MMV396703] | -47.33
26 | CN1CCN(c2ncnc3c2[nH]c2ccc(Cl)cc23)CC1 [MMV396704] | -24.85
27 | COc1cccc(Cn2c(Oc3ccccc3)nc3c2c(=O)n(C)c(=O)n3C)c1 [MMV396705] | -23.91
28 | CC1(c2ccccc2)Nc2ccccc2-c2nc3ccccc3n21 (stereo not shown) [MMV396715] | -22.40
29 | COc1ccc(CCN2C(=O)c3[nH]nc(-c4cc(Cl)c(C)cc4O)c3C2c2ccccc2F)cc1 (stereo not shown) [MMV396717] | -12.02
30 | COc1cccc(C2(C)Nc3ccccc3-c3nc4ccccc4n32)c1 (stereo not shown) [MMV396719] | 6.50
31 | N=c1n(CCN2CCCCC2)c2ccccc2n1CC(=O)c1ccc(Cl)c(Cl)c1 [MMV396723] | 22.11
32 | N#Cc1nc(Cc2cccc3ccccc23)oc1N1CCN(C(c2ccccc2)c2ccccc2)CC1 [MMV396726] | -6.81
33 | OC(CNCC1CCCO1)Cn1c2ccc(Cl)cc2c2cc(Cl)ccc21 (stereo not shown) [MMV396736] | 50.77
34 | CC(C)CNC(=O)c1c(N)n(CCc2ccccc2F)c2nc3ccccc3nc12 [MMV396744] | -10.23
35 | COc1ccc2c(c1)C1(Nc3ccccc3-c3nc4ccccc4n31)C(=O)N2 (stereo not shown) [MMV396749] | 0.0365
36 | O=C(NNc1cc(N2CCCC2)nc(N2CCCC2)n1)c1ccccc1 [MMV396770] | -1.95
37 | CC(C)(C)CC(C)(C)NCC(O)COc1ccc(Cl)cc1Cl (stereo not shown) [MMV396794] | 97.35
38 | COc1ccc(-c2c(C)nn3c(N)c(C#N)cnc23)cc1OC [MMV396797] | -51.42
39 | Cc1cccc(-n2ncc3c(O)nc(-n4nc(C)cc4NC(=O)c4cc5ccccc5o4)nc32)c1 [MMV403679] | -25.18
40 | CCOC(=O)c1c[nH]c2c(CC)cccc2c1=O [MMV498479] | -7.93
41 | C=CC12CCN(CC1)C(C(O)c1ccnc3ccc(OC)cc13)C2.Cl (stereo not shown) [MMV665782] | -43.49
42 | CCN(CC)CCCNc1ccnc2cc3ccccc3cc12 [MMV665783] | -52.95

Row | Compound | PGI (% of DB1127 at 10 uM) [%]
43 | CC(C)(C)c1ccc(O)c(CNC2CCCCC2)c1 [MMV665785] | 1.27
44 | O=c1cc(NC2CCN(CCCc3ccccc3)CC2)c2cc(Cl)ccc2o1 [MMV665786] | -0.88
45 | CC(NCc1ccccc1)c1cc(Cl)ccc1O (stereo not shown) [MMV665789] | -38.95
46 | CCOc1cc(Br)c(C(C)NC(=O)c2cccc(OC)c2)cc1OCC (stereo not shown) [MMV665796] | -1.06
47 | CCCCOC(=O)c1ccc(Nc2cc(C)nc3ccc(OC)cc23)cc1 [MMV665797] | 0.71
48 | FC(F)(F)c1cccc(Nc2nc(-c3ccccc3)nc3ncccc23)c1 [MMV665798] | 30.38
49 | COc1ccc(C(=O)Nc2ccc(Cl)cc2C(=O)Nc2ccncc2)cc1 [MMV665799] | 5.52
50 | CCOc1cc(Cl)c(C(C)NC(=O)c2ccccc2)cc1OCC (stereo not shown) [MMV665800] | -123.29
51 | CCOc1cc(Cl)c(C(C)NC(=O)c2cccc(OC)c2)cc1OCC (stereo not shown) [MMV665803] | -50.18
52 | CCOc1ccc(-c2nonc2NC(=O)c2cccc(C)c2)cc1OCC [MMV665805] | -25.24
53 | Cc1c(C)n(CC(O)CNC2CCCCC2C)c2ccccc12 (stereo not shown) [MMV665806] | 5.77
54 | Oc1ccc(Br)cc1CN1CCN(Cc2ccc(Cl)cc2)CC1 [MMV665809] | -23.13
55 | CCc1ccc(CNCC(O)c2ccccc2)cc1.Cl (stereo not shown) [MMV665812] | -2.45
56 | CCOC(=O)c1cnc2ccc(OC)cc2c1NCc1ccccc1 [MMV665813] | -12.77
57 | Oc1c(C(Nc2ccccn2)c2cccc(Oc3ccccc3)c2)ccc2cccnc12 (stereo not shown) [MMV665814] | -6.04
58 | CC(C)(C)CC(C)(C)NCC(O)COc1ccc2c(c1)CCC2.Cl (stereo not shown) [MMV665817] | -44.11
59 | COc1ccc2c(=O)cc(C(Cl)(Cl)Cl)oc2c1 [MMV665820] | -22.08
60 | Cn1c(C(=O)c2cccc3ccccc23)nc2ccccc21 [MMV665824] | -1.12
61 | COc1cccc(NC(=O)Cn2c(C)c(C#N)c3ccccc32)c1 [MMV665826] | -17.93
62 | CCOC(=O)c1cn(CC)c2cc(N3CCCCC3)c(F)cc2c1=O [MMV665827] | -20.29
63 | CC1CC2=C(CC1CNCCCN(C)C)C(C)(C)CCC2 (stereo not shown) [MMV665830] | -3.36

Row | Compound | PGI (% of DB1127 at 10 uM) [%]
64 | CCOC(=O)c1c(NC(=O)c2ccccc2)sc2c(O)c(CN(CC)CC)ccc12 [MMV665831] | -16.80
65 | COc1ccc(/C=C2/SC(=Nc3ccccc3)NC2=O)cc1 [MMV665836] | -11.27
66 | O=C(Nc1ccc(-c2nc3ccccc3[nH]2)cc1)c1ccc(Cl)c(Cl)c1 [MMV665840] | -1.75
67 | CCCc1cc(O)c2c3c(c(=O)oc2c1)CN(C)CC3 [MMV665841] | -34.14
68 | O=c1c2c([nH]c3ccccc13)CCCC2 [MMV665843] | -19.31
69 | Oc1ccc(Cl)cc1CNc1nc2ccccc2[nH]1 [MMV665850] | -85.60
70 | CCOc1c(Cl)cc(CNC(C)C(O)c2ccccc2)cc1OC (stereo not shown) [MMV665857] | -30.92
71 | CCCCNc1nc(NC(C)(C)C)nc(NC(C)(C)C)n1 [MMV665864] | -36.23
72 | Cc1cc(Nc2ccc(C)c(Cl)c2)n2nc(C(F)(F)F)nc2n1 [MMV665874] | -25.13
73 | Cl.Cn1c(=O)n(C)c2cc(CNCCNc3ccnc4cc(Cl)ccc34)ccc21 [MMV665875] | 7.55
74 | CCC(c1ccccc1)c1nn2c(-c3cccs3)nnc2s1 (stereo not shown) [MMV665876] | -39.84
75 | COc1cccc(NC(=O)[C@H](C(C)C)n2c(=O)[nH]c3ccccc3c2=O)c1 [MMV665878] | -74.00
76 | CC(C)(C)C(=O)Nc1ccc(C(=O)Nc2cccc(-c3nc4ccccc4[nH]3)c2)cc1 [MMV665879] | 17.15
77 | COc1ccc(CNC(=O)c2cc3c(=O)n4ccccc4nc3n(CCc3ccccc3)c2=N)cc1 [MMV665881] | 6.76
78 | OC(CNC1CCCCC1)Cn1c2ccc(I)cc2c2cc(I)ccc21 (stereo not shown) [MMV665882] | 54.36
79 | O=C(Nc1cccc(-c2nc3ccccc3[nH]2)c1)c1cccc(NC(=O)c2ccco2)c1 [MMV665883] | 21.02
80 | CC(Oc1ccc(NC(=O)c2cccs2)cc1)C(=O)c1ccc(Cl)cc1 (stereo not shown) [MMV665886] | 2.30
81 | O=C(Nc1ccccc1O)c1ccc(Oc2cccc(C(=O)Nc3ccccc3O)c2)cc1 [MMV665888] | -15.91
82 | COc1ccc(-c2nonc2NC(=O)c2cccc(C)c2)cc1OC [MMV665890] | -8.07
